The record followed here is patent US5585277A, “Screening method for identifying ligands for target proteins” (Scriptgen Pharmaceuticals, Inc., priority 1995, dated 1996).

For test [1], the system named is Dihydrofolate Reductase (DHFR). Nature of the test: Protection of DHFR from proteolytic digestion by Proteinase K, undigested DHFR quantified by ELISA. The format is binding. Particulars: same methods as Example 1, separate experiments, 54° C., 5 minutes. The protocol:
(§1) Samples were removed and undigested DHFR was quantified by ELISA as follows:
(§2) (a) Protease incubations were diluted 50 fold with Tris-buffered saline (TBS);
(§3) (b) 50 μl diluted samples were transferred to the wells of an ELISA plate and incubated 60 minutes at room temperature;
(§4) (e) plate wells were washed as in (c) above;
(§5) (g) plate wells were washed as in (c); and […]
Background: In an ELISA, binding on a coated surface is turned into a signal by an enzyme label.

The subject of test [2] is Dihydrofolate Reductase (DHFR). Nature of the test: Protection of DHFR from Proteinase K digestion in the presence of a mixture of all 20 common amino acids, ELISA. It counts as binding. Particulars: 10^-5M ligand, 10^-5M of all 20 common amino acids, DHFR 2.1 μg/ml, Proteinase K 80 μg/ml, 54° C., 5 minutes. The protocol:
The following were combined and incubated at 54° C. for 5 minutes: DHFR (2.1 μg/ml), Proteinase K (80μg/ml), 0.1M Tris-HCl [pH 7.5], 10^-5M of all 20 common amino acids and either 0 or 10^-5M ligand.
as §1, §2, §3, §4, §5

Turning to `NC(=O)C1=CN([C@@H]2O[C@H](COP(=O)(O)OP(=O)(O)OC[C@H]3O[C@@H](n4cnc5c(N)ncnc54)[C@H](OP(=O)(O)O)[C@@H]3O)[C@@H](O)[C@H]2O)C=CC1` [NADPH], in test [1], the “concentration at which ligand inhibits proteolysis of DHFR” value was ≥ 10^-5. In addition, the “protection of DHFR from digestion relative to the absence of ligands” value in test [2] is given as “Protects Dihydrofolate Reductase (DHFR) From Proteolytic Digestion”.
